In patent US20240287076A1, “COMPOUNDS FOR TARGETING DEGRADATION OF BRUTON'S TYROSINE KINASE” (BIOGEN MA INC., priority 2021, published 2024):

Molecular target: T1, BTK (Homo sapiens, UniProt Q06187)
T1 construct: The GM01501.3 cell line endogenously expresses BTK with a HiBiT fusion tag via CRISPR knock-in at its C-terminal region; endogenous in cells; host or cells: GM01501.3 (GM01501 cells engineered by CRISPR knock-in of HiBiT at the BTK locus)
Test: BTK degradation assay using the HiBiT Method (Nano-Glo HiBiT Lytic Assay, GM01501.3 cells)
Type: cell-based
Conditions: HiBiT Degradation on GM01501.3 BTK @ 6 hours
In short: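 CRISPR knock-in GM01501.3 cells expressing endogenous BTK with C-terminal HiBiT tag, treated 6 h at 37 °C with compounds, 11-point half-log titration from 10 μM top, duplicates. Remaining BTK quantified by Nano-Glo HiBiT lytic luminescence versus DMSO controls; DC50 reported.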

T1 sequence (Q06187 whole entry, the tested form may be a part): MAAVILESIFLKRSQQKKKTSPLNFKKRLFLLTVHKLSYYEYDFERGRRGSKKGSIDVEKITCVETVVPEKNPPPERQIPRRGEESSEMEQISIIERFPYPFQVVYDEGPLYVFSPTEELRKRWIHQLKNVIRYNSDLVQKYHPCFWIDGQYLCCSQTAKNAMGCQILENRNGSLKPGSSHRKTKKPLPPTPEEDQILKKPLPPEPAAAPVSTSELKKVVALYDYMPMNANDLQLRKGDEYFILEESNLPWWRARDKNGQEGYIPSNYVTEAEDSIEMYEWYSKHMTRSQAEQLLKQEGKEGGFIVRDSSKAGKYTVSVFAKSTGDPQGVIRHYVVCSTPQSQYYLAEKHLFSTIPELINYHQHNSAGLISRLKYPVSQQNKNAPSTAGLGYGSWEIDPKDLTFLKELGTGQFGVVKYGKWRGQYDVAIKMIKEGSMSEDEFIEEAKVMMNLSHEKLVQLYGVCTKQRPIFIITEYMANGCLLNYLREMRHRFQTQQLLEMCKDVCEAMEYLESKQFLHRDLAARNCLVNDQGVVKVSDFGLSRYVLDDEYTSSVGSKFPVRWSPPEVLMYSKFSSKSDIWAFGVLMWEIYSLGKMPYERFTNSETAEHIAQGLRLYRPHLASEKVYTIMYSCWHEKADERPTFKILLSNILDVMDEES

Cc1cc(-c2ncnn3cc(CCN4CCC(c5ccc6c(N7CCC(=O)NC7=O)nn(C)c6c5)CC4)cc23)ccc1CNC(=O)c1cnn(C(C)(C)C)c1 [Example 258, 1-(tert-butyl)-N-(4-(6-(2-(4-(3-(2,4-dioxotetrahydropyrimidin-1(2H)-yl)-1-methyl-1H-indazol-6-yl)piperidin-1-yl)ethyl)pyrrolo[2,1-f][1,2,4]triazin-4-yl)-2-methylbenzyl)-1H-pyrazole-4-carboxamide] and Cc1cc(-c2ncnn3cc(CCCCN4CCC(c5ccc6c(N7CCC(=O)NC7=O)nn(C)c6c5)CC4)cc23)ccc1CNC(=O)c1cnn(C(C)(C)C)c1 [Example 281, 1-(tert-butyl)-N-(4-(6-(4-(4-(3-(2,4-dioxotetrahydropyrimidin-1(2H)-yl)-1-methyl-1H-indazol-6-yl)piperidin-1-yl)butyl)pyrrolo[2,1-f][1,2,4]triazin-4-yl)-2-methylbenzyl)-1H-pyrazole-4-carboxamide] cannot be ordered by DC50: under 100 nM for the first, under 100 nM for the second.

Cc1cc(-c2ncnn3cc(CCN4CCC(c5ccc6c(N7CCC(=O)NC7=O)nn(C)c6c5F)CC4)cc23)ccc1CNC(=O)c1noc(C(C)(C)C)n1 [Example 259, 5-(tert-butyl)-N-(4-(6-(2-(4-(3-(2,4-dioxotetrahydropyrimidin-1(2H)-yl)-7-fluoro-1-methyl-1H-indazol-6-yl)piperidin-1-yl)ethyl)pyrrolo[2,1-f][1,2,4]triazin-4-yl)-2-methylbenzyl)-1,2,4-oxadiazole-3-carboxamide] and Cc1cc(-c2ncnn3cc(CCCCN4CCC(c5ccc6c(N7CCC(=O)NC7=O)nn(C)c6c5F)CC4)cc23)ccc1CNC(=O)c1noc(C(C)(C)C)n1 [Example 278, 5-(tert-butyl)-N-(4-(6-(4-(4-(3-(2,4-dioxotetrahydropyrimidin-1(2H)-yl)-7-fluoro-1-methyl-1H-indazol-6-yl)piperidin-1-yl)butyl)pyrrolo[2,1-f][1,2,4]triazin-4-yl)-2-methylbenzyl)-1,2,4-oxadiazole-3-carboxamide] cannot be ordered by DC50: under 100 nM for the first, under 100 nM for the second.

Cc1cc(-c2ncnn3cc(CCN4CCN(c5ccc(NC6CCC(=O)NC6=O)cn5)CC4)cc23)ccc1CNC(=O)c1noc(C(C)(C)C)n1 (centres unmarked) [Example 260, 5-(tert-butyl)-N-(4-(6-(2-(4-(5-((2,6-dioxopiperidin-3-yl)amino)pyridin-2-yl)piperazin-1-yl)ethyl)pyrrolo[2,1-f][1,2,4]triazin-4-yl)-2-methylbenzyl)-1,2,4-oxadiazole-3-carboxamide] and Cc1cc(-c2ncnn3cc(CCN4CCN(c5ncc(NC6CCC(=O)NC6=O)cc5F)CC4)cc23)ccc1CNC(=O)c1noc(C(C)(C)C)n1 (centres unmarked) [Example 263, 5-(tert-butyl)-N-(4-(6-(2-(4-(5-((2,6-dioxopiperidin-3-yl)amino)-3-fluoropyridin-2-yl)piperazin-1-yl)ethyl)pyrrolo[2,1-f][1,2,4]triazin-4-yl)-2-methylbenzyl)-1,2,4-oxadiazole-3-carboxamide] cannot be ordered by DC50: under 100 nM for the first, under 100 nM for the second.

Cc1cc(-c2ncnn3cc(CCN4CCC(c5ccc(OC6CCC(=O)NC6=O)cn5)CC4)cc23)ccc1CNC(=O)c1noc(C(C)(C)C)n1 (centres unmarked) [Example 264, 5-(tert-butyl)-N-(4-(6-(2-(4-(5-((2,6-dioxopiperidin-3-yl)oxy)pyridin-2-yl)piperidin-1-yl)ethyl)pyrrolo[2,1-f][1,2,4]triazin-4-yl)-2-methylbenzyl)-1,2,4-oxadiazole-3-carboxamide] and Cc1cc(-c2ncnn3cc(CCN4CCC(c5ccn6c(N7CCC(=O)NC7=O)cnc6c5)CC4)cc23)ccc1CNC(=O)c1noc(C(C)(C)C)n1 [Example 269, 5-(tert-butyl)-N-(4-(6-(2-(4-(3-(2,4-dioxotetrahydropyrimidin-1(2H)-yl)imidazo[1,2-a]pyridin-7-yl)piperidin-1-yl)ethyl)pyrrolo[2,1-f][1,2,4]triazin-4-yl)-2-methylbenzyl)-1,2,4-oxadiazole-3-carboxamide] cannot be ordered by DC50: under 100 nM for the first, under 100 nM for the second.

Going from Cc1cc(-c2ncnn3cc(CCN4CCC(c5ccc6c(N7CCC(=O)NC7=O)cnn6c5)CC4)cc23)ccc1CNC(=O)c1noc(C(C)(C)C)n1 [Example 270, 5-(tert-butyl)-N-(4-(6-(2-(4-(3-(2,4-dioxotetrahydropyrimidin-1(2H)-yl)pyrazolo[1,5-a]pyridin-6-yl)piperidin-1-yl)ethyl)pyrrolo[2,1-f][1,2,4]triazin-4-yl)-2-methylbenzyl)-1,2,4-oxadiazole-3-carboxamide] to Cc1cc(-c2ncnn3cc(CCN4CCC(c5ccc6c(N7CCC(=O)NC7=O)noc6c5)CC4)cc23)ccc1CNC(=O)c1noc(C(C)(C)C)n1 [Example 272, 5-(tert-butyl)-N-(4-(6-(2-(4-(3-(2,4-dioxotetrahydropyrimidin-1(2H)-yl)benzo[d]isoxazol-6-yl)piperidin-1-yl)ethyl)pyrrolo[2,1-f][1,2,4]triazin-4-yl)-2-methylbenzyl)-1,2,4-oxadiazole-3-carboxamide], the DC50 rises from under 100 nM to over 1000 nM.

Cc1cc(-c2ncnn3cc(CCN4CCC(c5ccc6c(N7CCC(=O)NC7=O)nn(C)c6c5)CC4)cc23)ccc1CNC(=O)c1cn(C(C)(C)C)nn1 [Example 271] and Cc1cc(-c2ncnn3cc(CCCCN4CCC(c5ccc6c(N7CCC(=O)NC7=O)nn(C)c6c5)CC4)cc23)ccc1CNC(=O)c1cc(C(C)(C)C)no1 [Example 280, 3-(tert-butyl)-N-(4-(6-(4-(4-(3-(2,4-dioxotetrahydropyrimidin-1(2H)-yl)-1-methyl-1H-indazol-6-yl)piperidin-1-yl)butyl)pyrrolo[2,1-f][1,2,4]triazin-4-yl)-2-methylbenzyl)isoxazole-5-carboxamide] cannot be ordered by DC50: under 100 nM for the first, under 100 nM for the second.

Cc1cc(-c2ncnn3cc(CCN4CCC(c5ccc6c(C7CCC(=O)NC7=O)nn(C)c6c5)CC4)cc23)ccc1CNC(=O)c1ccn(C(C)(C)C)n1 (centres unmarked) [Example 273, 1-(tert-butyl)-N-(4-(6-(2-(4-(3-(2,6-dioxopiperidin-3-yl)-1-methyl-1H-indazol-6-yl)piperidin-1-yl)ethyl)pyrrolo[2,1-f][1,2,4]triazin-4-yl)-2-methylbenzyl)-1H-pyrazole-3-carboxamide] and Cc1cc(-c2ncnn3cc(CCN4CCC(c5ccc6c7c(cccc57)C(=O)N6C5CCC(=O)NC5=O)CC4)cc23)ccc1CNC(=O)c1noc(C(C)(C)C)n1 (centres unmarked) [Example 274, 5-(tert-butyl)-N-(4-(6-(2-(4-(1-(2,6-dioxopiperidin-3-yl)-2-oxo-1,2-dihydrobenzo[cd]indol-6-yl)piperidin-1-yl)ethyl)pyrrolo[2,1-f][1,2,4]triazin-4-yl)-2-methylbenzyl)-1,2,4-oxadiazole-3-carboxamide] cannot be ordered by DC50: under 100 nM for the first, under 100 nM for the second.

Cc1cc(-c2ncnn3cc(CCN4CCC(c5ccc(NC6CCC(=O)NC6=O)cc5)C(F)(F)C4)cc23)ccc1CNC(=O)c1noc(C(C)(C)C)n1 (centres unmarked) [Example 275, 5-(tert-butyl)-N-(4-(6-(2-(4-(4-((2,6-dioxopiperidin-3-yl)amino)phenyl)-3,3-difluoropiperidin-1-yl)ethyl)pyrrolo[2,1-f][1,2,4]triazin-4-yl)-2-methylbenzyl)-1,2,4-oxadiazole-3-carboxamide] and Cc1cc(-c2ncnn3cc(OCCN4CCC(c5ccc(NC6CCC(=O)NC6=O)cc5)CC4)cc23)ccc1CNC(=O)c1noc(C(C)(C)C)n1 (centres unmarked) [Example 288, 5-(tert-butyl)-N-(4-(6-(2-(4-(4-((2,6-dioxopiperidin-3-yl)amino)phenyl)piperidin-1-yl)ethoxy)pyrrolo[2,1-f][1,2,4]triazin-4-yl)-2-methylbenzyl)-1,2,4-oxadiazole-3-carboxamide] cannot be ordered by DC50: under 100 nM for the first, under 100 nM for the second.

Cc1cc(-c2ncnn3cc(CCCCN4CCN(c5ccc(C6CCC(=O)NC6=O)cn5)CC4)cc23)ccc1CNC(=O)c1noc(C(C)(C)C)n1 (centres unmarked) [Example 279, 5-(tert-butyl)-N-(4-(6-(4-(4-(5-(2,6-dioxopiperidin-3-yl)pyridin-2-yl)piperazin-1-yl)butyl)pyrrolo[2,1-f][1,2,4]triazin-4-yl)-2-methylbenzyl)-1,2,4-oxadiazole-3-carboxamide] and Cc1cc(-c2ncnn3cc(CCCCN4CCC(c5ccc6c(N7CCC(=O)NC7=O)nn(C)c6c5)C(F)(F)C4)cc23)ccc1CNC(=O)c1noc(C(C)(C)C)n1 (centres unmarked) [Example 283, 5-(tert-butyl)-N-(4-(6-(4-(4-(3-(2,4-dioxotetrahydropyrimidin-1(2H)-yl)-1-methyl-1H-indazol-6-yl)-3,3-difluoropiperidin-1-yl)butyl)pyrrolo[2,1-f][1,2,4]triazin-4-yl)-2-methylbenzyl)-1,2,4-oxadiazole-3-carboxamide] cannot be ordered by DC50: under 100 nM for the first, under 100 nM for the second.

Cc1cc(-c2ncnn3cc(CCCCN4CCC(c5ccc6c(N7CCC(=O)NC7=O)nn(C)c6c5)CC4)cc23)ccc1CNC(=O)c1noc(C2(C(F)(F)F)CC2)n1 [Example 282, N-(4-(6-(4-(4-(3-(2,4-dioxotetrahydropyrimidin-1(2H)-yl)-1-methyl-1H-indazol-6-yl)piperidin-1-yl)butyl)pyrrolo[2,1-f][1,2,4]triazin-4-yl)-2-methylbenzyl)-5-(1-(trifluoromethyl)cyclopropyl)-1,2,4-oxadiazole-3-carboxamide] and Cc1cc(-c2ncnn3cc(OC4CC(CN5CCC(c6ccc7c(N8CCC(=O)NC8=O)nn(C)c7c6)CC5)C4)cc23)ccc1CNC(=O)c1noc(C(C)(C)C)n1 (centres unmarked) [Example 289, 5-(tert-butyl)-N-(4-(6-(3-((4-(3-(2,4-dioxotetrahydropyrimidin-1(2H)-yl)-1-methyl-1H-indazol-6-yl)piperidin-1-yl)methyl)cyclobutoxy)pyrrolo[2,1-f][1,2,4]triazin-4-yl)-2-methylbenzyl)-1,2,4-oxadiazole-3-carboxamide] cannot be ordered by DC50: under 100 nM for the first, under 100 nM for the second.
